{
  "source": "patent US20140148446A1",
  "about": "“COMPOUNDS THAT ENABLE ALTERNATIVE MITOCHONDRIAL ELECTRON TRANSFER” (University of North Texas Health Science Center, priority 2010, published 2014)",
  "key": {"HT-22 cells [1]": {"system": "HT-22 cells", "test": "Cell viability assay, rotenone induced cytotoxicity", "type": "cell-based", "conditions": "rotenone 8 μM, 100 ng/ml MB co-treatment; vehicle 25.4±1.6%", "description": "Then cells were treated with vehicle (DMSO), rotenone (2-8 μM), antimycin A (1-10 μg/ml), or glucose oxidase (2-10 mU) in the presence or absence of various concentrations of MB for 24 hours. At the end of the 24 hours, the medium was removed and the plates were rinsed with PBS and incubated with 10 μM calcein-AM (Invitrogen, Carlsbad, Calif.) in PBS for 20 minutes. Fluorescence was determined using a TECAN M200 microplate reader (San Jose, Calif.) with an excitation/emission set at 485/530 nm. Cell culture wells treated with bleach before rinsing were used as blank."}, "[2]": {"system": "transient MCA occlusion in rats", "test": "Transient focal cerebral ischemia (MCA occlusion)", "type": "in vivo", "conditions": "rat, single dosage of MB at 500 μg/kg, 24 hr after reperfusion", "excerpt": "Transient focal cerebral ischemia was induced by intraluminal filament MCA occlusion (Liu et al., 2005). Briefly, the left internal carotid artery (ICA) was exposed, and a 3-0 monofilament nylon suture was introduced into the ICA lumen through a puncture and gently advanced to the distal ICA until proper resistance was felt. After 1 hr, the suture was withdrawn for reperfusion. At 24 hr after reperfusion, the animals were sacrificed and the brain harvested. The brains were sectioned at 3, 5, 7, 9, 11, 13 and 15 mm posterior to the olfactory bulb. Each slice was incubated 30 min in 2% 2,3,5-triphenyltetrazolium chloride (TTC) in physiological saline, then fixed in 10% formalin. The stained slices were digitally photographed for measurement of ischemic lesion volume (Image-Pro Plus 4.1)."}, "[3]": {"system": "mitochondrial complex II-III", "test": "Mitochondrial complex II-III activity in extracted mitochondria", "type": "biochemical, rat", "conditions": "with and without antimycin A", "method": "Fresh rat heart was removed and placed in ice-cold mitochondrial isolation buffer containing 210 mM mannitol, 70 mM sucrose, 5 mM HEPES, and 1 mM EDTA, pH 7. The heart was homogenized immediately, and the mitochondrial fraction was isolated by differential centrifugation as described previously (Trounce et al., 1996). Mitochondria were stored at −80° C. until subsequent analysis.\nAll mitochondrial activity assays were performed according to previous publications with minimal modifications for complex I (Lenaz et al., 2004), complex I-III, complex II, complex III, and II-III (Trounce et al., 1996). […] Complex I activity was monitored by adding NADH to the mix with or without rotenone/antimycin A. The final data were normalized to blank values at time zero. The reaction was monitored in a kinetic spectrophotometer at 340 nm. Complex I activity was measured in arbitrary units and normalized to control levels for statistical analysis. Isolated mitochondria equivalent to 40-200 μg mitochondrial protein was used for each assay, except for assays with inhibitors, when larger amount of mitochondria (3 to 5 folds) were used to ensure that inhibition was distinguishable. Final data were normalized to control levels. For complex I-III activity, the reaction was initiated with the addition of NADH, cyt c was used as final substrate and its reduction was monitored at 550 nm. […]"}, "[4]": {"system": "rotenone induced rat model of PD", "test": "Rotenone model of PD: striatal monoamines, brain complex I-III activity and total ROS", "type": "in vivo", "method": "All mitochondrial activity assays were performed according to previous publications with minimal modifications for complex I (Lenaz et al., 2004), complex I-III, complex II, complex III, and II-III (Trounce et al., 1996). All assays used a similar master mix that contained potassium phosphate pH 7.4 (50 mM), BSA 2.5mg/ml, MgCl2 5 mM, KCN (2 mM), and various inhibitors or substrates, including rotenone (6 μM), antimycin A (2 μM), NADH (150 μM), CoQ1 (60 μM), cyt c (50 μM), succinate (8 mM), and DBH2 (100 μM). Complex I activity was monitored by adding NADH to the mix with or without rotenone/antimycin A. The final data were normalized to blank values at time zero. The reaction was monitored in a kinetic spectrophotometer at 340 nm. Complex I activity was measured in arbitrary units and normalized to control levels for statistical analysis. Isolated mitochondria equivalent to 40-200 μg mitochondrial protein was used for each assay, except for assays with inhibitors, when larger amount of mitochondria (3 to 5 folds) were used to ensure that inhibition was distinguishable. Final data were normalized to control levels. For complex I-III activity, the reaction was initiated with the addition of NADH, cyt c was used as final substrate and its reduction was monitored at 550 nm. For assay of complex II-III activity, succinate was added instead of NADH, and the electron transfer to cyt c was performed according to previous publications (Atamna et al., 2008). To test whether the electrons from the reduced form of MB (MBH2) can be transferred to cyt c in mitochondrial lysate, we added 10 μM 2,7-dichlorofluorescin (DCFH, Invitrogen, Carlsbad, Calif.) to the reaction system. Free radicals convert non-fluorescent DCFH to highly fluorescent DCF (Ex, 488 nm, and Em, 530 nm). In the presence of cyt c, which accepts electrons from MBH2, conversion of DCFH to DCF is decreased.\nRats were assigned to three groups: control animals received vehicle infusion and daily saline injection (Veh/Sal N=6-8); a second group received rotenone infusion at the dose of 5 mg/kg/day and daily saline injection (ROT/Saline N=8-11); and the third group received rotenone infusion (5 mg/kg/day) and MB injection at the dose of 500 μg/kg/day (ROT/MB N=8-10). Vehicle or rotenone was infused via Alzet osmotic mini pumps that were filled with vehicle or rotenone dissolved in vehicle (equal volumes of dimethylsulfoxide and polyethylene glycol). Pumps containing vehicle or rotenone were sterilized with UV irradiation and implanted subcutaneously on the back. Intraperitoneal injections were administered with normal saline or MB, 500 μg/kg/day, diluted in normal saline to 500 μl of final volume. Rats were sacrificed on day 8 at four hours after last dose of MB or saline treatment.\nAfter completion of neurological assessments and behavioral tests, rats were killed on the 8th day of rotenone infusion under anesthesia induced by xylazine (20 mg/kg, i.p.) and ketamine (100 mg/kg, i.p.). All osmotic pumps were checked for the residual liquid to ensure proper drug delivery. One hemisphere was fixed by 4% paraformaldehyde in phosphate buffer for 48 hr until processing for sectioning. The other hemisphere was snap-frozen in liquid nitrogen, and kept at −80° C. until extraction for biochemical analysis. Striatum dissected from a separate set of animals were used for analysis of monoamines by HPLC. […]"}, "HT-22 cells [5]": {"system": "HT-22 cells", "test": "Protection against ROS production induced by glutamate in HT-22 cells", "type": "cell-based", "conditions": "Mus musculus"}, "FRDA fibroblast": {"system": "FRDA fibroblast", "test": "BSO induced FRDA fibroblast cell death", "type": "cell-based"}, "[6]": {"conditions": "pH 7.0; cited from earlier work"}, "HT-22 cells [7]": {"system": "HT-22 cells", "test": "Cell viability assay, H2O2 (glucose oxidase) induced cytotoxicity", "type": "cell-based"}},
  "note": "pEC50: −log10 of the molar value.",
  "data": [
    {"smiles": "CN(C)c1ccc2nc3ccc(=[N+](C)C)cc-3sc2c1", "note": "[methylene blue]", "values": [
      {"measurement": "Cell survival", "setting": "HT-22 cells [1]", "value": "60.5±4.5", "unit": "%"},
      {"measurement": "Ischemic lesion volume", "setting": "[2]", "value": "significantly reduced"},
      {"measurement": "Effect on complex II-III activity", "setting": "[3]", "value": "no significant effects"},
      {"measurement": "Decrease of complex I-III activity in brain extracts", "setting": "[4]; MB 500 μg/kg/day i.p.", "value": "prevented"},
      {"measurement": "Overall ROS in brain extracts", "setting": "[4]; MB 500 μg/kg/day i.p.", "value": "attenuated in the ROT/MB group to basal level"},
      {"measurement": "Striatum L-DOPAC depletion", "setting": "[4]; MB 500 μg/kg/day i.p.", "value": "almost completely rescued"},
      {"measurement": "Striatum dopamine depletion", "setting": "[4]; MB 500 μg/kg/day i.p.", "value": "almost completely rescued"},
      {"measurement": "Striatum 5-HT levels", "setting": "[4]; all three groups", "value": "no significant differences"},
      {"measurement": "pEC50", "setting": "HT-22 cells [5]", "value": 7.69},
      {"measurement": "Damaging effects of BSO (cell death)", "setting": "FRDA fibroblast", "value": "greatly ameliorates"},
      {"measurement": "Redox potential", "setting": "[6]", "value": 11, "unit": "mV"},
      {"measurement": "Protection against H2O2 induced oxidative damage", "setting": "HT-22 cells [7]", "value": "failed to protect"}
    ]}
  ]
}
